Data set [1] has as its target T1, Aβ25-35 (Homo sapiens, UniProt P05067).
T1 construct: made in house; host or cells: chemical solid-phase (Fmoc) peptide synthesis; no expression host
Put plainly: ThT assay, inhibition of Aβ25-35 aggregation. Format: biochemical. The settings on record: for IC50: 100 µM Aβ25-35, PBS, 37 °C, 4 h, ThT fluorescence, n = 3. How it is done:
To perform the ThT assay to evaluate aggregation, Aβ25-35 (final concentration of 100 μM) was incubated with ThT solution (final concentration of 10 μM) in Phosphate-buffered saline (PBS), pH 7.4. The ThT signal was monitored by measuring the fluorescence emission at 480 nm for 10 s when excited at 444 nm using Cytation 5 (BioTek, Vermont, WI, USA) at 37 °C [41]. Aggregated Aβ25-35 (100 μM) peptides were prepared by incubating for 18 h in PBS.
We also evaluated inhibitory effects in a time-dependent manner. The fluorescence intensity of the reaction mixture of peptide and Aβ25-35 was traced for 120 min at 15 min intervals.
Therefore, we evaluated the concentration-dependent aggregation inhibitory effect of YS-RD11 and YS-RE16 on Aβ25-35. Various concentrations of the peptides (YS-RD11; 1 to 100 µM, YS-RE16; 0.01 to 10 µM) were incubated independently with 100 µM Aβ25-35 (final con. 100 µM) in PBS at 37 °C. The fluorescence intensity of reaction mixtures was measured after 4 h.

Data set [2] is described as follows: Solubility. The data set is classed as physicochemical. The settings on record: stated without data.
Data set [3] deals with A549 cells. Put plainly: A549 cell viability, WST-8 assay. The settings on record: 0.1 mg/mL peptide, 72 h, WST-8, n = 4; compared with FLAG peptide. In general terms: Formazan colour is commonly taken as a measure of viable cells.
Protocol: The human lung cancer cell line, A549, was obtained from the Riken Cell Bank (Ibaraki, Japan). The cells were cultured as described previously [30, 43]. Briefly, A549 cells (4 × 10^3 cells/well) were seeded into 96-well plates and maintained in Dulbecco’s modified Eagle’s medium (DMEM) supplemented with 10% fetal bovine serum, 100 units/mL penicillin, and 100 μg/mL streptomycin at 37 °C in a humidified atmosphere with 5% CO2. […] After incubation for 72 h, the medium was exchanged for 110 μL of medium containing 10 μL WST-8 (water-soluble tetrazolium salt WST-8) reagent and 100 μL DMEM). The cells were further incubated for 1 h, the absorbance was determined at 450 nm with a reference wavelength of 620 nm using a SPECTRA max Plus384 microplate reader (Molecular Devices, LCC, San Jose, CA, USA).
Data set [4] has as its system aggregated Aβ25-35. Put plainly: SEM, resolution of aggregated Aβ25-35. Format: biochemical. How it is done: Aβ25-35 (100 μM) was incubated with YS-RD11 or YS-RE16 in PBS at 37 °C. The reaction mixture was centrifuged at 9000 rpm for 5 min. The supernatant was removed, 200 μL of MilliQ water was added and mixed, and the solution was centrifuged at 9000 rpm for 5 min to obtain a sample for SEM [42]. Aggregated Aβ25-35 (100 μM) peptides were prepared by incubating for 18 h in PBS.
Next, the resolving effect of YS-RD11, YS-RE16, and YS-DE6 on aggregated Aβ25-35 was assessed by observing its shape using SEM.

Data set [5] concerns u-proMMP-7. The settings on record: cited from earlier work. The text has this: Chaperones are potential drug candidates for folding diseases, such as AD and Parkinson’s disease, which are caused by protein aggregation. In recent years, research has focused on low-molecular-weight chemical chaperones rather than on chaperone proteins. Biochemical methods are used to screen for chemical chaperones with the aim of developing therapeutic agents for lysosomal diseases, which are ...

In data set [6] the test system is Aβ42. More on the design: method as in 2 sources, ref 28 = [28]; PMID 30930080; doi:10.1016/j.peptides.2019.03.005; 28. Nakamura R. Konishi M. Taniguchi M. Hatakawa Y. Akizawa T. The discovery of shorter synthetic proteolytic peptides derived from Tob1 protein Peptides 2019 116 71 77 10.1016/j.peptides.2019.03.005 ||| ref 29, 30, 31 = [29]; PMID 31687556; doi:10.1016/j.heliyon.2019.e02454; 29. Hatakawa Y. Nakamura R. Konishi M. Sakane T. Saito M. Akizawa T. Catalytides derived from the Box A region in the ANA/BTG3 protein cleave amyloid-β fragment peptide Heliyon 2019 5 e02454 10.1016/j || [30]; PMID 33816760; doi:10.1002/trc2.12146; 30. Hatakawa Y. Nakamura R. Konishi M. Sakane T. Tanaka A. Matsuda A. Saito M. Akizawa T. Amyloid beta cleavage by ANA-TA9, a synthetic peptide from the ANA/BTG3 Box A region Alzheimers Dement. Transl || [31]; 31. Nakamura R. Konishi M. Hatakawa Y. Saito M. Akizawa T. The Novel Catalytic Peptide, A Synthetic Nona-Peptide (JAL-TA9) Derived from Tob1 Protein, Digests the Amyloid-β Peptide J. R. Sci. 2019 1 30. The settings on record: cited from earlier work.

Details of data set [7]: method as in PMID 30930080. The note with it: structure–activity relationship of JAL-AK22; cited from earlier work.
The conditions of data set [8]: in vivo; cited from earlier work.
In data set [9] the test system is patients with AD. The settings on record: cited from earlier work. The text has this: Alzheimer’s disease (AD) is the most common age-related neurodegenerative disorder worldwide. Amyloid-β (Aβ) 42, which is produced by the cleavage of amyloid precursor protein (APP) by β- or γ-secretases, is considered to cause AD [1, 2, 3]. […] Thus, the current main strategy is to develop Aβ antibodies and vaccines aimed at inhibiting Aβ aggregation. […] Lecanemab, the latest Aβ ant ...

Where a SMILES comes first, the peptide text is derived from it.

Turning to `CC(C)C[C@H](NC(=O)[C@H](Cc1c[nH]cn1)NC(=O)[C@@H](NC(=O)[C@H](CC(C)C)NC(=O)[C@H](Cc1ccc(O)cc1)NC(=O)[C@@H](NC(=O)[C@H](CC(C)C)NC(=O)[C@@H](NC(=O)[C@H](CCC(=O)O)NC(=O)[C@@H](N)CCCNC(=N)N)[C@@H](C)O)C(C)C)[C@@H](C)O)C(=O)N[C@@H](CC(=O)O)C(=O)O` [YS-RD11] (H-RETLVYLTHLD-OH), the IC50 – broadly, the point on the concentration scale where inhibition reaches its midpoint – in data set [1] is approximately 1500 nM. Moreover, the solubility result in data set [2] was “high solubility”. In addition, the “effect on growth of A549 cells” value in data set [3] is “did not show a significant inhibitory effect on the growth of A549 cells”. Regarding `CC(C)C[C@H](NC(=O)[C@H](Cc1c[nH]cn1)NC(=O)[C@@H](NC(=O)[C@H](CC(C)C)NC(=O)[C@H](Cc1ccc(O)cc1)NC(=O)[C@@H](NC(=O)[C@H](CC(C)C)NC(=O)[C@@H](NC(=O)[C@H](CCC(=O)O)NC(=O)[C@@H](N)CCCNC(=N)N)[C@@H](C)O)C(C)C)[C@@H](C)O)C(=O)N[C@@H](CC(=O)O)C(=O)N[C@@H](Cc1ccc(O)cc1)C(=O)N[C@@H](CC(=O)O)C(=O)N[C@@H](CC(=O)O)C(=O)N[C@H](C(=O)N[C@@H](CCC(=O)O)C(=O)O)[C@@H](C)O` [YS-RE16] (H-RETLVYLTHLDYDDTE-OH), the IC50 in data set [1] was approximately 500 nM. Moreover, in data set [3], the “effect on growth of A549 cells” value is reported as “did not show a significant inhibitory effect on the growth of A549 cells”. For the molecule “DYDDTE [YS-DE6, peptide derived from YS-RE20, DYDDTE]”, the “amyloid fibrils observed by SEM, peptide 100 µM” value in data set [4] (100 µM peptide + 100 µM aggregated Aβ25-35 (18 h), PBS) is reported as “a cluster of amyloid fibrils”. In addition, the “effect on Aβ25-35 aggregation, negative control” value in [4] (YS-DE6 as negative control) is “did not show any effect against Aβ25-35 aggregation”.

With “KWEGHWYPEKPYKGSGFRCIHI [JAL-AK22, reference compound]”, the “activation of proMMP-7” value in data set [5] was “activates proMMP-7 by cleaving the pro-domain of MMP-7”. As to YKGSGFRMI [JAL-TA9], in [6], the “cleavage of Aβ42” value is “cleaved Aβ42 with serine protease-like activity”; the “cleavage of soluble (a-Aβ42) and solid insoluble (s-Aβ42) Aβ42” value was “cleaved both the authentic soluble form Aβ42 (a-Aβ42) and the solid insoluble form Aβ42 (s-Aβ42) in the central region”. Further, the auto-proteolytic activity result in [7] is reported as “strongest auto-proteolytic activity”. For the molecule YKNMRETLVYLTHLD [YS-YD15], the “aggregation inhibitory activity against Aβ25-35 (conclusion in words)” value in [1] (ThT, 100 μM peptides, PBS) is listed as “weak inhibitory activity”. Turning to YKNMRETLVYLTHLDYDDTE [YS-YE20], the “activation of u-proMMP7” value in [5] (screening of 3000 types of peptides, no reference given) is “activates u-proMMP7 by acting as a chaperone rather than Catalytide”. oxytocin: the peptide oxytocin: the “drug delivery to the brain via nasal application” value in data set [8] is “direct and efficient drug delivery”.

B1: lecanemab: latest Aβ antibody drug approved by the U.S. Food and Drug Administration (antibody, chains of the INN, looked up, V domains shown)
VH: EVQLVESGGGLVQPGGSLRLSCSASGFTFSSFGMHWVRQAPGKGLEWVAYISSGSSTIYYGDTVKGRFTISRDNAKNSLFLQMSSLRAEDTAVYYCAREGGYYYGRSYYTMDYWGQGTTVTVSS
VL: DVVMTQSPLSLPVTPGAPASISCRSSQSIVHSNGNTYLEWYLQKPGQSPKLLIYKVSNRFSGVPDRFSGSGSGTDFTLRISRVEAEDVGIYYCFQGSHVPPTFGPGTKLEIK
Consider B1, for which the side effects result in [9] is “cerebral edema and cerebral microhemorrhage”. Also, in data set [9] (patients with AD, no reference at this sentence), the “clinical effectiveness by AD stage” value is reported as “potentially effective in the early stages of AD but is less effective in the later stages”.

(Values after publication PMC11506537, “An 11-mer Synthetic Peptide Suppressing Aggregation of Aβ25-35 and Resolving Its Aggregated Form Improves Test Performance in an Aβ25-35-Induced Alzheimer’s Mouse Model” (Biomolecules, 2024).)
